# Results from patent US12121540B2, “CBL inhibitors and compositions for use in adoptive cell therapy” (Nurix Therapeutics, Inc., priority 2019, dated 2024).
# Columns and labels:
# [1] = test system: human tumor-infiltrating lymphocytes (TIL); assay: Flow cytometry immunophenotyping of expanded TIL; assay type: cell-based; conditions: for CD4 TCM CD62L+ CCR7+, percentage of total TIL cell number / CD4 TEM CD62L− CCR7−, percentage of total TIL cell number / CD8 TCM CD62L+ CCR7−, percentage of total TIL cell number / CD8 TEM CD62L− CCR7−, percentage of total TIL cell number: TIL1 population, day 28
# Protocol: The plates were placed in a humidified 37° C. incubator with 5% CO2. Half of the medium was replaced every two days after culture initiation. […] Subsequently, half the media was replaced thrice weekly, cultures were split to maintain a cell density of 1×10^6 cells/mL. […] Mitochondrial markers including, Mitotracker, Mitoprobe, and 2-NBDG may also be used to assess differentiation and/or activation of cells.
# T lymphocytes were defined based on lineage and differentiation marker expression according to the developmental model (Restifo, Blood, 124:476-477, 2014), as shown in Table 4.
# [2] = test system: CD8+ and CD4+ TIL; assay: CD107a and granzyme B in TIL after anti-CD3/CD28 stimulation; assay type: cell-based, human
# Protocol: In the context of cytotoxicity, granzyme B (Grb), a protease secreted to mediate apoptosis, was assessed.
# [3] = test system: OT-1 cells; assay: Re-stimulation of harvested splenocytes with OVA Class I peptide; assay type: cell-based, mouse
# Protocol: (§1) The expanded OT-1 cells were characterized by FACS analysis and transferred into E.G7-OVA mice, which bear ovalbumin (OVA) expressing tumors. Following in vivo transfer of expanded OT-1 cells, antitumor response was monitored over time and the quality and quantity of immune response was assessed at various time points. Analysis included FACS analysis on blood, tumor, and spleen samples. Analysis also included re-stimulation of splenocytes with OVA Class I peptide to evaluate the multifunctionality of the antigen-specific effector T cells.
# Expanded OT-1 cells were assessed from splenocytes 11 days after transfer. Harvested splenocytes were re-stimulated with OVA Class I peptide for 72 hours.
# Expanded OT-1 cells were assessed from splenocytes 11 days after transfer. Harvested splenocytes were re-stimulated with OVA Class I peptide for 4 hours.
# Expanded OT-1 cells were assessed from splenocytes 11 days after transfer. Harvested splenocytes were re-stimulated with OVA Class I peptide for 24 hours.
# [4] = test system: OT-1 cells; assay: Tumor re-challenge of long term survivors 149 days after OT-1 transfer; assay type: in vivo, mouse
# Description: To determine whether OT-1 cells are capable of long-term tumor protection, the long term survivors of the above experiment (FIG. 12) were re-challenged with a lethal dose of E.G7-OVA tumor cells 149 days after the initial adoptive transfer of the in vitro expanded OT-1 cells. Re-challenge induced OT-1 cell expansion at the site engrafted with E.G7-OVA tumor cells expressing ovalbumin antigen, thereby effectively controlling tumor growth (FIG. 21).
# [5] = test system: OT-1 cells; assay: FACS of transferred OT-1 cells in blood and tumor of E.G7-OVA mice; assay type: in vivo, mouse
# Protocol: Dead cells were removed (Miltenyi Biotec Cat #130-090-101) prior to transfer in vivo to monitor their trafficking and function in an EG.7 lymphoma model, which expresses the OVA antigen. Approximately five million cells per mouse were transferred to mice having an average tumor burden of about 70 mm^3. Following in vivo transfer of the OT-1 cells, antitumor response was monitored over time and the quality and quantity of immune response were assessed at various time points.
# as §1
# On Day 0, E.G7-OVA cells were implanted into each mouse. On Day 5, approximately 5×10^6 in vitro expanded OT-1 cells were injected into the tail of each mouse. On Day 9, blood was analyzed by FACS. On Day 14, blood, tumor and spleen samples were analyzed by FACS. On Day 27, blood was analyzed by FACS. Tumor volume was measured approximately every five days through about 50 days post implant.
# OT-1 cells were expanded according to the previous examples and administered to E.G7-OVA mice, which bear ovalbumin (OVA) expressing tumors. The cells were evaluated for their in vivo properties.
# Expanded OT-1 cells were assessed in blood 4 days and 22 days after transfer.
# Expanded OT-1 cells were assessed in tumors 4 days after transfer.
# [6] = IL-2 + compound 103, upon stimulation
# [7] = expanded with IL2 + compound 103, anti-CD3/CD28 6 hours
# [8] = Cbl inhibitor expanded, 4 hours restimulation
smiles,measurement,setting,value
C[C@@H]1CN(Cc2cc3c(c(C(F)(F)F)c2)CN(c2cccc(C4(Cc5nncn5C)COC4)c2)C3=O)CCC1(F)F [compound 103],"CD4 TCM CD62L+ CCR7+, percentage of total TIL cell number",[1]; 0.1 μM Cbl-i,2.8%
same,"CD4 TEM CD62L− CCR7−, percentage of total TIL cell number",[1]; 0.1 μM Cbl-i,67.2%
same,"CD8 TCM CD62L+ CCR7−, percentage of total TIL cell number",[1]; 0.1 μM Cbl-i,19.5%
same,"CD8 TEM CD62L− CCR7−, percentage of total TIL cell number",[1]; 0.1 μM Cbl-i,37.2%
same,"CD4 TCM CD62L+ CCR7+, percentage of total TIL cell number",[1]; 1.0 μM Cbl-i,8.0%
same,"CD4 TEM CD62L− CCR7−, percentage of total TIL cell number",[1]; 1.0 μM Cbl-i,24.2%
same,"CD8 TCM CD62L+ CCR7−, percentage of total TIL cell number",[1]; 1.0 μM Cbl-i,20.2%
same,"CD8 TEM CD62L− CCR7−, percentage of total TIL cell number",[1]; 1.0 μM Cbl-i,15.6%
same,"CD4 TCM CD62L+ CCR7+, percentage of total TIL cell number",[1]; 10 μM Cbl-i,15.8%
same,"CD4 TEM CD62L− CCR7−, percentage of total TIL cell number",[1]; 10 μM Cbl-i,66.7%
same,"CD8 TCM CD62L+ CCR7−, percentage of total TIL cell number",[1]; 10 μM Cbl-i,29.7%
same,"CD8 TEM CD62L− CCR7−, percentage of total TIL cell number",[1]; 10 μM Cbl-i,13.2%
same,"CD4 TCM CD62L+ CCR7+, percentage of total TIL cell number",[1]; IL-2 + 0.1 μM Cbl-i,12.1%
same,"CD4 TEM CD62L− CCR7−, percentage of total TIL cell number",[1]; IL-2 + 0.1 μM Cbl-i,49.3%
same,"CD8 TCM CD62L+ CCR7−, percentage of total TIL cell number",[1]; IL-2 + 0.1 μM Cbl-i,20.3%
same,"CD8 TEM CD62L− CCR7−, percentage of total TIL cell number",[1]; IL-2 + 0.1 μM Cbl-i,35.5%
same,"CD4 TCM CD62L+ CCR7+, percentage of total TIL cell number",[1]; IL-2 + 1.0 μM Cbl-i,15.2%
same,"CD4 TEM CD62L− CCR7−, percentage of total TIL cell number",[1]; IL-2 + 1.0 μM Cbl-i,57.3%
same,"CD8 TCM CD62L+ CCR7−, percentage of total TIL cell number",[1]; IL-2 + 1.0 μM Cbl-i,16.5%
same,"CD8 TEM CD62L− CCR7−, percentage of total TIL cell number",[1]; IL-2 + 1.0 μM Cbl-i,43.3%
same,"CD4 TCM CD62L+ CCR7+, percentage of total TIL cell number",[1]; IL-2 + 10 μM Cbl-i,0%
same,"CD4 TEM CD62L− CCR7−, percentage of total TIL cell number",[1]; IL-2 + 10 μM Cbl-i,55.8%
same,"CD8 TCM CD62L+ CCR7−, percentage of total TIL cell number",[1]; IL-2 + 10 μM Cbl-i,20.5%
same,"CD8 TEM CD62L− CCR7−, percentage of total TIL cell number",[1]; IL-2 + 10 μM Cbl-i,35.4%
same,Selective expansion of CD8+ T lymphocytes,"[1]; malignant ovarian tumor sample, FIG. 7",selectively expand CD8+ T lymphocytes
same,CD107A+GRB+ cells,[2]; [6],significant increase
same,Granzyme B (Grb) produced in TIL vs IL-2 alone,[2]; [6],significant increase of Grb
same,CD4+ TIL capable of producing CD107a,[2]; [7],greater than 60%
same,CD8+ TIL capable of producing CD107a,[2]; [7],greater than 60%
same,Exhaustion markers (PD1 and TIM3) in multifunctional cells vs IL-2 alone,[3]; [8],lower level of expression of exhaustion markers
same,Multifunctionality (IFN-gamma and TNF-alpha double positive cells) vs IL-2 alone,[3]; [8],comparable multifunctionality
same,IL-2 production upon restimulation,"[3]; Cbl inhibitor expanded, 24 hours restimulation",increased IL-2 production upon restimulation
same,Proliferation in response to peptide restimulation vs IL-2 alone,"[3]; Cbl inhibitor expanded, splenocytes 11 days after transfer, 72 hours",superior intrinsic ability to proliferate
same,Proliferation in response to peptide restimulation,"[3]; expanded with Cbl inhibitor and IL-2, 72 hours",even greater intrinsic ability to proliferate
same,Number of OT-1 cells in blood (in vivo persistence),"[4]; 149 days after transfer, expanded with Cbl inhibitor or Cbl inhibitor plus IL-2",present at a higher number in the blood
same,Recall response after tumor re-challenge vs IL-2 alone,"[4]; OT-1 cells per ml of blood at day 5, Cbl inhibitor or Cbl inhibitor plus IL-2",significantly more rapid recall response
same,Frequency in total CD45+ cells and persistence in blood vs IL-2 alone or anti-CD3 alone,"[5]; Cbl inhibitor expanded, 4 and 22 days after transfer",higher frequency in total CD45+ cells and persisted longer
same,Tumor infiltration (frequency in total CD45+ cells in tumor) vs IL-2 alone or anti-CD3 alone,"[5]; Cbl inhibitor expanded, 4 days after transfer",increased ability to infiltrate the tumor
same,"OT-1 cells expressing stem markers TCF1+, PD-1+, TIM-3−",[5]; OT-1 cells expanded with Cbl inhibitor,greater percentage of cells that expressed stem markers
same,Frequency in total CD45+ cells and persistence in blood,"[5]; expanded with Cbl inhibitor and IL-2, 4 and 22 days after transfer",even higher frequency in total CD45+ cells and higher persistence
same,Tumor infiltration (frequency in total CD45+ cells in tumor),"[5]; expanded with Cbl inhibitor and IL-2, 4 days after transfer",highest frequency in total CD45+ cells
same,"Expression of exhaustion markers PD1, TIM3, LAG3 in tumor vs IL-2 alone",[5]; expanded with Cbl inhibitor or Cbl inhibitor plus IL-2,lower level of expression of exhaustion markers
